Values quoted from earlier work as cited in patent publication US20120178771A1, “Oral Pharmaceutical Compositions of Buprenorphine and Method of Use” (priority 2008, published 2012).

What was measured:
[1] = orally administered, versus placebo; pain assessed 0.5 to 6 hours
[2] = human, in vivo

**Q.** With `CC(=O)Nc1ccc(O)cc1` [acetaminophen (paracetamol), acetaminophen] as the molecule, how does the “analgesia over the 6 hours, differences between the groups” value [1] read?
**A.** no significant differences between the groups in analgesia

**Q.** Which “dose range required to control pain in about 90% of subjects” value [2] does the source give for `CN1CC[C@]23c4c5ccc(O)c4O[C@H]2[C@@H](O)C=C[C@H]3[C@H]1C5` [morphine] here?
**A.** 8 fold

**Q.** With `COc1ccc2c3c1O[C@H]1C(=O)CC[C@@]4(O)[C@@H](C2)N(C)CC[C@]314` [oxycodone] as the molecule, how does the “dose range required to control pain in about 90% of subjects” value [2] read?
**A.** 4 fold
